Legend:
Test in all cases: LF/GMP assay, viable plate count (pour plate) of broth culture
Assay type in all cases: cell-based
Conditions in all cases: for Log Difference: sialic acid 1,000 ppm vs 0 ppm, + = more growth
[1] = tested on: Pseudomonas aeruginosa ATCC #27853
Description: Bacterial strains used in this study were Pseudomonas aeruginosa ATCC #27853, Streptococcus mutans ATCC #33535, Streptococcus pyogenes ATCC #19615, and Actinobacillus haemophilus ATCC #43717 and an oral swab from a healthy adult. Bacteria were grown on blood/BHT media (Brain Heart Infusion Agar with protease peptone, sodium chloride, glucose, di-sodium phosphate, and agar, Oxoid, Hampshire England, Sheep's Blood) in the presence of 5% CO2 at 35° C. Bacteria were harvested by swabbing inoculated growth plates after 24 hours and diluting the colonies in 9 ml of deionized water (DI water) until a suspension of 0.5 McFarland Turbidity Standard was reached using the nephelometer (McFarland Turbidity Meter). The 0.5 McFarland value is approximately equivalent to 1.0×10^8 organisms. One ml of the appropriate bacterial dilution was taken using a sterile pipette and introduced into 8 ml of sterilized BHI broth. (Preparation of BHI broth: 37 g+1,000 ml DI water, Difco Laboratories. By pipette, 9 ml of broth was placed into medium test tubes as means of a control and 8 ml test tubes were prepared for the concentration tests).
This solution was filtered through a 0.45 μm filter. […] Example for calculating 2,500 ppm dilution (1,000 ppm=0.1%): [formula] [formula] [formula] […]
One mL of each bacterial strain, plus one mL of sialic acid solution (1,000 ppm) were inoculated into test tubes filled with 8 mL of BHI broth. Each test tube was vortexed, incubated for 24 hours at 35° C. with 5% CO2, and then pour plated in BHI agar to obtain a plate count.
This technique was used to determine the density of living (viable) cells in inoculated broth cultures. It involves plating a bacterial sample and counting the resulting colonies after incubation. A serial dilution of the original broth was taken prior to plating. The serial dilution is necessary to reduce the density of organisms in order to create countable plates. Only plates containing between 25 and 250 colonies are considered countable. Cell densities are traditionally recorded as CFU (colony forming unit)/ml. By convention, when 1.0 ml is inoculated onto a plate, the dilution factor (DF) is recorded as tenfold greater. Formula: [formula]
The assays required the use of a pour plate technique. The pour plate technique adds a step to the conventional serial dilution. The 1 ml of dilution is added to a warm emulsion of dilute nutrient (BHI) agar to produce an agar overlay in the petri plates. After incubation, the bacterial growth covers the entire plate but individual cellular movement has been restricted by the soft agar overlay. Each colony formed is assumed to have originated from a single CFU. The plates were gently mixed, inverted, and incubated for 18-24 hour at 35° C. […]

[2] = tested on: Actinobacillus haemophilus ATCC #43717
Description: (§1) Bacterial strains used in this study were Pseudomonas aeruginosa ATCC #27853, Streptococcus mutans ATCC #33535, Streptococcus pyogenes ATCC #19615, and Actinobacillus haemophilus ATCC #43717 and an oral swab from a healthy adult. Bacteria were grown on blood/BHT media (Brain Heart Infusion Agar with protease peptone, sodium chloride, glucose, di-sodium phosphate, and agar, Oxoid, Hampshire England, Sheep's Blood) in the presence of 5% CO2 at 35° C. […] One ml of the appropriate bacterial dilution was taken using a sterile pipette and introduced into 8 ml of sterilized BHI broth. […] By pipette, 9 ml of broth was placed into medium test tubes as means of a control and 8 ml test tubes were prepared for the concentration tests). […] This solution was filtered through a 0.45 μm filter. […] To study the kinetics of LF/GMP binding, each strain of bacteria was taken separately with a sterile pipette and placed into an 8 ml BHI broth test tube, vortexed, and incubated in the presence of 1 ml of LF or GMP for 18-24 hours at 35° C. with 5% CO2. In the combination procedure, 0.5 ml of both LF and […] were taken as 1 ml inoculations. One mL of each bacterial strain, plus one mL of sialic acid solution (1,000 ppm) were inoculated into test tubes filled with 8 mL of BHI broth. Each test tube was vortexed, incubated for 24 hours at 35° C. with 5% CO2, and then pour plated in BHI agar to obtain a plate count. This technique was used to determine the density of living (viable) cells in inoculated broth cultures. It involves plating a bacterial sample and counting the resulting colonies after incubation. A serial dilution of the original broth was taken prior to plating. The serial dilution is necessary to reduce the density of organisms in order to create countable plates. Only plates containing between 25 and 250 colonies are considered countable. Cell densities are traditionally recorded as CFU (colony forming unit)/ml. […] Formula: [formula] The assays required the use of a pour plate technique. The pour plate technique adds a step to the conventional serial dilution. The 1 ml of dilution is added to a warm emulsion of dilute nutrient (BHI) agar to produce an agar overlay in the petri plates. After incubation, the bacterial growth covers the entire plate but individual cellular movement has been restricted by the soft agar overlay. Each colony formed is assumed to have originated from a single CFU. The plates were gently mixed, inverted, and incubated for 18-24 hour at 35° C. Using a control (one broth tube inoculated with a bacterial strain, but no LF), the effectiveness of LF was examined. Each test tube containing a specified amount of LF (50, 100, 250, 500, 1,000 ppm and 3000 ppm) was diluted and plates were poured. […] A. haemophilus, S. mutans, S. pyrogenes and an oral culture were tested at 35° C. Pseudomonas aeruginosa was tested at both room temperature and 35° C. with 5% CO2. This was done because P. aeruginosa is not strictly an oral pathogen. It is commonly found in the environment in various conditions. It can be found in the environment and oral intake can cause inflammation in the oral cavity. Most normal oral bacteria are only found in the mouth and are not taken in from outside factors. Therefore, P. aeruginosa is a threat in both temperature settings. […] (see Table 2).

[3] = tested on: Streptococcus mutans ATCC #33535
Description: as §1

[4] = 24 hours at 35° C. with 5% CO2, listed as Sialic acid
[5] = sialic acid 1,000 ppm, 24 hours at 35° C. with 5% CO2
[6] = sodium bicarbonate pH 4.36, column 1,000 ppm

SMILES: CC(=O)N[C@H]1[C@H]([C@H](O)[C@H](O)CO)OC(O)(C(=O)O)C[C@@H]1O (stereo partly drawn) [Sialic Acid, N-acetylneuraminic acid, reference compound]
- Log Difference ([1]; 24 hours at 35° C. with 5% CO2): ^+1 log
- Log Difference [1, 4]: increased the amount of bacterial growth by one log
- plate count [1, 5]: 1.0 × 10^9
- Log Difference ([2]; 24 hours at 35° C. with 5% CO2): 0 log
- Log Difference [2, 4]: did not reduce the bacterial growth
- plate count [2, 5]: 2.9 × 10^8
- Log Difference ([3]; 24 hours at 35° C. with 5% CO2): 0 log
- Log Difference [3, 4]: did not reduce the bacterial growth
- plate count [3, 5]: 5.4 × 10^7

SMILES: O=C([O-])O.[Na+] [Sodium Bicarbonate, Sodium bicarbonate]
- pour plate count [1, 6]: 6.0 × 10^6
- pour plate count [2, 6]: 1.9 × 10^8
- pour plate count [3, 6]: 8.4 × 10^7

— US6890900B2, “Methods for treating or preventing diseases of the oral cavity” (Campina B.V., priority 2001, dated 2005)
